Experimental data taken from paper PMC5794925, “Expression and specificity of a chitin deacetylase from the nematophagous fungus Pochonia chlamydosporia potentially involved in pathogenicity” (Scientific Reports, 2018).

Biological target: T1, PcCDA catalytic domain (Pochonia chlamydosporia, UniProt A0A179FW77)
T1 construct: gene VFPPC_13269
T1 sequence (A0A179FW77 94-309): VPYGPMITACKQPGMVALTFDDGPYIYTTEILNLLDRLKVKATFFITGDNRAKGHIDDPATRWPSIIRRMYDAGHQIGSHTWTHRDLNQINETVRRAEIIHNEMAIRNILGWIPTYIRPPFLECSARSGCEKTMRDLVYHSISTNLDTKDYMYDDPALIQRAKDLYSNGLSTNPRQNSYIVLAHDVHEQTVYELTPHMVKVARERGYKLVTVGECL
Test: HPLC-MS of deacetylated products
Type: biochemical
Details: 0.2 mM substrate, 3.2 nM enzyme, 50 mM K2HPO4, 300 mM NaCl, pH 8.0, 37 °C; refolded with Zn2+

CC(=O)N[C@H]1[C@H](O[C@H]2[C@H](O)[C@@H](NC(C)=O)C(O)O[C@@H]2CO)O[C@H](CO)[C@@H](O[C@@H]2O[C@H](CO)[C@@H](O[C@@H]3O[C@H](CO)[C@@H](O)[C@H](O)[C@H]3NC(C)=O)[C@H](O)[C@H]2NC(C)=O)[C@@H]1O (stereo partly shown) [A4, GlcNAc4]
HPLC-MS of deacetylated products: With the A4 substrate, the enzyme was also active but slower than with the A5
